Legend:
Format in all cases: ADME, organism-based
Rattus norvegicus [1] = species on record: Rattus norvegicus; assay: Drug level in rat plasma; conditions: in vivo
[2] = Ratio of drug level in rat brain against plasma; conditions: brain and plasma, read-out: BPR
Rattus norvegicus [3] = species on record: Rattus norvegicus; assay: Drug level in rat brain; conditions: in vivo

Drug uptake (Rattus norvegicus [1]) [ng/g]	Kp [2]	Drug uptake (Rattus norvegicus [3]) [ng/g]	SMILES
6.7	3.4	21.8	CCc1ccc(-c2ccc(C(=O)N(C)[C@H]3CCN(C(=O)N4CC[C@@H](N(C)C5CCOCC5)C4)C3)s2)cc1
6.2	6.5	38.3	CCc1ccc(-c2ccc(C(=O)N(C)[C@H]3CCN(C(=O)N4CC[C@@H](N5CCCCC5)C4)C3)cc2)cc1
30.5	0.6	17.3	CCc1ccc(-c2ccc(C(=O)N(C)[C@H]3CCN(C(=O)N4CC[C@@H](NC5CCOCC5)C4)C3)s2)cc1
14.5	0.4	5.1	CCc1ccc(-c2ccc(C(=O)N(C)[C@H]3CCN(C(=O)N4CC[C@@H](NC5CCOCC5)C4)C3)cc2)cc1

Reference: ChEMBL document CHEMBL1149494, “Synthesis and structure-activity relationships of retro bis-aminopyrrolidine urea (rAPU) derived small-molecule antagonists of the melanin-concentrating hormone receptor-1 (MCH-R1). Part 2” (Bioorg Med Chem Lett, 2006)
